Experimental data reported in PubChem BioAssay (NCI).
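Dose response: 5 concentrations. Exposure: 48 h. Format: 96-well plates. Endpoint: linear interpolation; highest concentration if not reached. Abbreviation: GI50, concentration required for 50% inhibition of growth. The concentration for full growth arrest is given as TGI.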

Tests used:
Assay in all cases: growth of human tumour cells (NCI), 48 h
SF-268 CNS = tested on: SF-268 CNS
UO-31 renal = tested on: UO-31 renal
SK-MEL-28 melanoma = tested on: SK-MEL-28 melanoma
SF-539 CNS = tested on: SF-539 CNS
LOX IMVI melanoma = tested on: LOX IMVI melanoma
SNB-75 CNS = tested on: SNB-75 CNS
MOLT-4 leukemia = tested on: MOLT-4 leukemia

CCc1cccc(C)c1N1C(=O)C(=O)C(c2nc3ccccc3o2)/C(=N/NC(=S)NN)C1=O (stereo unspecified)
TGI (SF-268 CNS): > 100 µM
TGI (UO-31 renal): > 100 µM
TGI (SK-MEL-28 melanoma): > 100 µM
TGI (SF-539 CNS): > 100 µM
TGI (LOX IMVI melanoma): > 100 µM
TGI (SNB-75 CNS): > 100 µM

CC12CC/C(=N/NC(N)=O)C3C1CCCC32
TGI (SF-268 CNS): > 100 µM
TGI (MOLT-4 leukemia): > 100 µM
TGI (UO-31 renal): > 100 µM
TGI (SK-MEL-28 melanoma): > 100 µM
TGI (SF-539 CNS): > 100 µM
TGI (LOX IMVI melanoma): > 100 µM
TGI (SNB-75 CNS): > 100 µM

CN(C)CCCOc1ccc(/C=C2/CCC/C(=C/c3ccc(OCCCN(C)C)cc3)C2=O)cc1
TGI (SF-268 CNS): 4.84 µM
TGI (MOLT-4 leukemia): 2.5 µM
TGI (UO-31 renal): 3.34 µM
TGI (SK-MEL-28 melanoma): 4 µM
TGI (SF-539 CNS): 3.02 µM
TGI (LOX IMVI melanoma): 3.29 µM
TGI (SNB-75 CNS): 2.61 µM

CCC[CH2][Sn]1([CH2]CCC)[O]C(=O)CN=C(C)c2ccccc2[O]1
GI50 (SF-268 CNS): 0.306 µM
TGI (SF-268 CNS): 1.65 µM
GI50 (MOLT-4 leukemia): 0.74 µM
TGI (MOLT-4 leukemia): 5.04 µM
GI50 (UO-31 renal): 1.32 µM
TGI (UO-31 renal): 2.63 µM
GI50 (SK-MEL-28 melanoma): 0.868 µM
TGI (SK-MEL-28 melanoma): 2.11 µM
GI50 (SF-539 CNS): 2.78 µM
TGI (SF-539 CNS): > 100 µM
GI50 (LOX IMVI melanoma): 0.533 µM
TGI (LOX IMVI melanoma): 1.84 µM
GI50 (SNB-75 CNS): 0.735 µM
TGI (SNB-75 CNS): 2.34 µM

COC(=O)C(=O)C(C#N)c1cccc(Cl)c1 (stereo unspecified)
TGI (SF-268 CNS): > 100 µM
TGI (MOLT-4 leukemia): > 100 µM
TGI (UO-31 renal): > 100 µM
TGI (SK-MEL-28 melanoma): > 100 µM
TGI (SF-539 CNS): > 100 µM
TGI (LOX IMVI melanoma): > 100 µM
TGI (SNB-75 CNS): > 100 µM

CC12CCCC(C#N)(C1)OC2=O (stereo unspecified)
TGI (SF-268 CNS): > 100 µM
TGI (MOLT-4 leukemia): > 100 µM
TGI (UO-31 renal): > 100 µM
TGI (SK-MEL-28 melanoma): > 100 µM
TGI (SF-539 CNS): > 100 µM
TGI (SNB-75 CNS): > 100 µM

Cc1ccccc1C=NC12CC3CC(CC(C3)C1)C2
TGI (SF-268 CNS): > 100 µM
TGI (MOLT-4 leukemia): > 100 µM
TGI (UO-31 renal): > 100 µM
TGI (SK-MEL-28 melanoma): > 100 µM
TGI (SF-539 CNS): > 100 µM
TGI (LOX IMVI melanoma): > 100 µM
TGI (SNB-75 CNS): > 100 µM

O=C(CN(Cc1ccccc1)Cc1ccccc1)N1CCc2c([nH]c3ccccc23)C1c1cccnc1 (stereo unspecified)
TGI (SF-268 CNS): > 100 µM
TGI (MOLT-4 leukemia): 6.88 µM
TGI (UO-31 renal): 9.54 µM
TGI (SK-MEL-28 melanoma): > 100 µM
TGI (SF-539 CNS): 26.6 µM
TGI (LOX IMVI melanoma): 39.5 µM
TGI (SNB-75 CNS): 81.9 µM

O=CC1CCC=CC1NC(=O)OCc1ccccc1 (stereo unspecified)
TGI (SF-268 CNS): > 100 µM
TGI (MOLT-4 leukemia): > 100 µM
TGI (UO-31 renal): > 100 µM
TGI (SK-MEL-28 melanoma): > 100 µM
TGI (SF-539 CNS): 51.9 µM
TGI (LOX IMVI melanoma): > 100 µM
TGI (SNB-75 CNS): 94.3 µM

N#CC(C(=O)/C(=N/NC(=O)c1ccccc1O)C(C#N)c1ccc(Br)cc1)c1ccc(Br)cc1 (stereo unspecified)
TGI (MOLT-4 leukemia): 44 µM
TGI (UO-31 renal): 26.1 µM
TGI (SK-MEL-28 melanoma): 28.2 µM
TGI (SF-539 CNS): 25.3 µM
TGI (LOX IMVI melanoma): 23 µM
TGI (SNB-75 CNS): 9.98 µM

O=C1C(Cl)=C(Cl)C(=O)N1c1ccccc1Cl
TGI (SF-268 CNS): > 100 µM
TGI (MOLT-4 leukemia): > 78.5 µM
TGI (UO-31 renal): > 100 µM
TGI (SK-MEL-28 melanoma): > 100 µM
TGI (SF-539 CNS): > 100 µM
TGI (LOX IMVI melanoma): > 100 µM
TGI (SNB-75 CNS): > 100 µM

CC[O-].CC[O-].COc1ccc(C(=O)[CH-]C(C)=O)cc1OC.COc1ccc(C(=O)[CH-]C(C)=O)cc1OC.[Ti+4]
GI50 (SF-268 CNS): > 100 µM
TGI (SF-268 CNS): > 100 µM
GI50 (MOLT-4 leukemia): 35.4 µM
TGI (MOLT-4 leukemia): > 100 µM
GI50 (UO-31 renal): 11.7 µM
TGI (UO-31 renal): 49.7 µM
GI50 (SK-MEL-28 melanoma): > 100 µM
TGI (SK-MEL-28 melanoma): > 100 µM
GI50 (SF-539 CNS): 38.9 µM
TGI (SF-539 CNS): > 100 µM
GI50 (LOX IMVI melanoma): 80.3 µM
TGI (LOX IMVI melanoma): > 100 µM
GI50 (SNB-75 CNS): 26.9 µM
TGI (SNB-75 CNS): > 100 µM

Cn1cnc([N+](=O)[O-])c1Sc1nc2ccccc2o1
TGI (SF-268 CNS): 14.4 µM
TGI (MOLT-4 leukemia): 8.99 µM
TGI (UO-31 renal): 24.8 µM
TGI (SK-MEL-28 melanoma): 18.6 µM
TGI (SF-539 CNS): 24.1 µM
TGI (LOX IMVI melanoma): 26.1 µM
TGI (SNB-75 CNS): 32.9 µM

Cc1cc(Cl)ccc1NC(=O)CC1SC(=NC(=O)c2ccccc2Cl)NC1=O (stereo unspecified)
TGI (SF-268 CNS): 36.7 µM
TGI (MOLT-4 leukemia): 6.65 µM
TGI (UO-31 renal): 44.6 µM
TGI (SK-MEL-28 melanoma): 44.8 µM
TGI (SF-539 CNS): 35.4 µM
TGI (LOX IMVI melanoma): 38.6 µM
TGI (SNB-75 CNS): 35 µM

O=C(Nc1ccccc1)n1cc(-c2ccccn2)c(N2CCOCC2)n1
TGI (SF-268 CNS): > 100 µM
TGI (MOLT-4 leukemia): > 100 µM
TGI (UO-31 renal): 92.8 µM
TGI (SF-539 CNS): 57.6 µM
TGI (LOX IMVI melanoma): > 100 µM
TGI (SNB-75 CNS): 43.7 µM

N#CC(C#N)=Cc1ccc(C(O)P(=O)(O)O)cc1 (stereo unspecified)
TGI (SF-268 CNS): > 100 µM
TGI (MOLT-4 leukemia): > 100 µM
TGI (UO-31 renal): > 100 µM
TGI (SK-MEL-28 melanoma): > 100 µM
TGI (SF-539 CNS): > 100 µM
TGI (LOX IMVI melanoma): > 100 µM

CC(=O)n1nnc2ccc([N+](=O)[O-])cc21
TGI (SF-268 CNS): > 100 µM
TGI (MOLT-4 leukemia): > 100 µM
TGI (UO-31 renal): > 100 µM
TGI (SK-MEL-28 melanoma): > 100 µM
TGI (SF-539 CNS): > 100 µM
TGI (LOX IMVI melanoma): > 100 µM
TGI (SNB-75 CNS): > 100 µM

Cn1nc(-c2ccccc2)c2c(/C=C/c3ccc(Cl)cc3)onc2c1=O
TGI (SF-268 CNS): > 100 µM
TGI (MOLT-4 leukemia): > 100 µM
TGI (UO-31 renal): 71.4 µM
TGI (SK-MEL-28 melanoma): > 100 µM
TGI (SF-539 CNS): 72.8 µM
TGI (LOX IMVI melanoma): 95.4 µM

COC(=O)C(=NNc1ccccc1[N+](=O)[O-])C(=O)OC
TGI (SF-268 CNS): > 100 µM
TGI (MOLT-4 leukemia): > 100 µM
TGI (SK-MEL-28 melanoma): > 100 µM
TGI (SF-539 CNS): > 100 µM
TGI (LOX IMVI melanoma): > 100 µM

N#CC(C(=O)CCC(=O)Nc1ccc(Cl)cc1)c1ccc(Cl)cc1 (stereo unspecified)
TGI (SF-268 CNS): > 100 µM
TGI (MOLT-4 leukemia): > 100 µM
TGI (UO-31 renal): > 100 µM
TGI (SF-539 CNS): > 100 µM
TGI (LOX IMVI melanoma): > 100 µM

Cc1cc2nc3c(=O)[nH]c(=O)nc-3n(CC(O)C(O)C(O)CO)c2cc1N (stereo unspecified)
TGI (MOLT-4 leukemia): > 100 µM
TGI (UO-31 renal): > 100 µM
TGI (SK-MEL-28 melanoma): > 100 µM
TGI (SF-539 CNS): > 100 µM
TGI (LOX IMVI melanoma): > 100 µM
TGI (SNB-75 CNS): > 100 µM

O=C1c2cccc([N+](=O)[O-])c2C(=O)c2nccnc21
TGI (MOLT-4 leukemia): 5.22 µM
TGI (UO-31 renal): 2.6 µM
TGI (SK-MEL-28 melanoma): 3.01 µM
TGI (SF-539 CNS): 2.93 µM
TGI (LOX IMVI melanoma): 2.68 µM
TGI (SNB-75 CNS): 2.35 µM
